Experimental data reported in ChEMBL document CHEMBL4308825, “Positive and Negative Allosteric Modulators of N-Methyl-d-aspartate (NMDA) Receptors: Structure-Activity Relationships and Mechanisms of Action” (J Med Chem, 2018).

What was measured:
[1] = biological target: T1, Glutamate receptor ionotropic, NMDA 2B (Homo sapiens, UniProt Q05586+Q13224); assay: Negative allosteric modulation of GluN2B receptor (unknown origin) expressed in xenopus laevis oocytes assessed as reduction in glycine-induced channel current by two electrode voltage clamp method; assay type: cell-based
[2] = biological target: T2, Glutamate receptor ionotropic, NMDA 2A (Homo sapiens, UniProt Q05586+Q12879); assay: Negative allosteric modulation of GluN2A receptor (unknown origin) expressed in xenopus laevis oocytes assessed as reduction in glycine-induced channel current by two electrode voltage clamp method; assay type: cell-based
[3] = biological target: T3, Glutamate receptor ionotropic, NMDA 2C (Homo sapiens, UniProt Q05586+Q14957); assay: Negative allosteric modulation of GluN2C receptor (unknown origin) expressed in xenopus laevis oocytes assessed as reduction in glycine-induced channel current by two electrode voltage clamp method; assay type: cell-based
[4] = biological target: T4, Glutamate receptor ionotropic, NMDA 2D (Homo sapiens, UniProt O15399+Q05586); assay: Negative allosteric modulation of GluN2D receptor (unknown origin) expressed in xenopus laevis oocytes assessed as reduction in glycine-induced channel current by two electrode voltage clamp method; assay type: cell-based
[5] = biological target: Glutamate NMDA receptor; GRIN1/GRIN2A (Homo sapiens, UniProt Q05586+Q12879); assay: Negative allosteric modulation of GluN1a/GluN2A receptor (unknown origin) expressed in xenopus laevis oocytes assessed as reduction in glutamate/glycine-induced channel current at -60 mV holding potential by two electrode voltage clamp method; assay type: cell-based
[6] = biological target: Glutamate NMDA receptor; GRIN1/GRIN2B (Homo sapiens, UniProt Q05586+Q13224); assay: Negative allosteric modulation of GluN1a/GluN2B receptor (unknown origin) expressed in xenopus laevis oocytes assessed as reduction in glutamate/glycine-induced channel current at -60 mV holding potential by two electrode voltage clamp method; assay type: cell-based
[7] = biological target: Ionotropic glutamate receptor NMDA 1/2C (Homo sapiens, UniProt Q05586+Q14957); assay: Negative allosteric modulation of GluN1a/GluN2C receptor (unknown origin) expressed in xenopus laevis oocytes assessed as reduction in glutamate/glycine-induced channel current at -60 mV holding potential by two electrode voltage clamp method; assay type: cell-based
[8] = biological target: Ionotropic glutamate receptor NMDA 1/2D (Homo sapiens, UniProt O15399+Q05586); assay: Negative allosteric modulation of GluN1a/GluN2D receptor (unknown origin) expressed in xenopus laevis oocytes assessed as reduction in glutamate/glycine-induced channel current at -60 mV holding potential by two electrode voltage clamp method; assay type: cell-based
[9] = biological target: T2, Glutamate receptor ionotropic, NMDA 2A; assay: Positive allosteric modulation of GluN2A receptor (unknown origin) expressed in xenopus laevis oocytes assessed as increase in glycine-induced channel current by two electrode voltage clamp method; assay type: cell-based
[10] = biological target: T1, Glutamate receptor ionotropic, NMDA 2B; assay: Positive allosteric modulation of GluN2B receptor (unknown origin) expressed in xenopus laevis oocytes assessed as increase in glycine-induced channel current by two electrode voltage clamp method; assay type: cell-based
[11] = biological target: T2, Glutamate receptor ionotropic, NMDA 2A; assay: Positive allosteric modulation of EGFP-fused human GluN2A receptor expressed in HEK293T cells assessed as increase in glycine-induced channel current by two electrode voltage clamp method; assay type: cell-based
[12] = biological target: T1, Glutamate receptor ionotropic, NMDA 2B; assay: Positive allosteric modulation of EGFP-fused human GluN2B receptor expressed in HEK293T cells assessed as increase in glycine-induced channel current by two electrode voltage clamp method; assay type: cell-based
[13] = biological target: T3, Glutamate receptor ionotropic, NMDA 2C; assay: Positive allosteric modulation of EGFP-fused human GluN2C receptor expressed in HEK293T cells assessed as increase in glycine-induced channel current by two electrode voltage clamp method; assay type: cell-based
[14] = biological target: T4, Glutamate receptor ionotropic, NMDA 2D; assay: Positive allosteric modulation of EGFP-fused human GluN2D receptor expressed in HEK293T cells assessed as increase in glycine-induced channel current by two electrode voltage clamp method; assay type: cell-based
[15] = species on record: Homo sapiens; assay: Selectivity ratio of IC50 for GluN2B receptor (unknown origin) expressed in xenopus laevis oocytes to IC50 for GluN2C receptor (unknown origin) expressed in xenopus laevis oocytes; assay type: cell-based
[16] = species on record: Homo sapiens; assay: Selectivity ratio of IC50 for GluN2A receptor (unknown origin) expressed in xenopus laevis oocytes to IC50 for GluN2C receptor (unknown origin) expressed in xenopus laevis oocytes; assay type: cell-based
[17] = species on record: Homo sapiens; assay: Selectivity ratio of IC50 for GluN2B receptor (unknown origin) expressed in xenopus laevis oocytes to IC50 for GluN2D receptor (unknown origin) expressed in xenopus laevis oocytes; assay type: cell-based
[18] = species on record: Homo sapiens; assay: Selectivity ratio of IC50 for GluN2A receptor (unknown origin) expressed in xenopus laevis oocytes to IC50 for GluN2D receptor (unknown origin) expressed in xenopus laevis oocytes; assay type: cell-based
[19] = biological target: T4, Glutamate receptor ionotropic, NMDA 2D; assay: Negative allosteric modulation of human GluN2D receptor expressed in HEK cells assessed as reduction in glycine/glutamate-induced intracellular calcium flux preincubated for 5 mins followed by glycine/glutamate addition by Fluo-4-AM dye based FLIPR assay; assay type: cell-based
[20] = biological target: T3, Glutamate receptor ionotropic, NMDA 2C; assay: Negative allosteric modulation of human GluN2C receptor expressed in xenopus laevis oocytes assessed as reduction in 3 uM glycine-induced channel current at -40 mV holding potential by two electrode voltage clamp method; assay type: cell-based
[21] = biological target: T4, Glutamate receptor ionotropic, NMDA 2D; assay: Negative allosteric modulation of human GluN2D receptor expressed in xenopus laevis oocytes assessed as reduction in 3 uM glycine-induced channel current at -40 mV holding potential by two electrode voltage clamp method; assay type: cell-based
[22] = biological target: T4, Glutamate receptor ionotropic, NMDA 2D; assay: Positive allosteric modulation of GluN2D receptor (unknown origin) expressed in xenopus laevis oocytes assessed as increase in glycine-induced channel current by two electrode voltage clamp method; assay type: cell-based
[23] = biological target: T2, Glutamate receptor ionotropic, NMDA 2A; assay: Negative allosteric modulation of human GluN2A receptor expressed in xenopus laevis oocytes assessed as reduction in 3 uM glycine-induced channel current at -40 mV holding potential by two electrode voltage clamp method; assay type: cell-based
[24] = biological target: T3, Glutamate receptor ionotropic, NMDA 2C; assay: Positive allosteric modulation of GluN2C receptor (unknown origin) expressed in xenopus laevis oocytes assessed as increase in glycine-induced channel current by two electrode voltage clamp method; assay type: cell-based
[25] = biological target: Glutamate receptor ionotropic, NMDA 2B (Rattus norvegicus, UniProt Q00960); assay: Positive allosteric modulation of GluN2B receptor in rat spinal cord neurons assessed as increase in glycine-induced channel current by two electrode voltage clamp method
[26] = biological target: Glutamate receptor ionotropic, NMDA 2B (Homo sapiens, UniProt Q13224); assay: Positive allosteric modulation of GluN2B receptor (unknown origin) in hippocampal neurons assessed as increase in glycine-induced channel current by two electrode voltage clamp method
[27] = biological target: T2, Glutamate receptor ionotropic, NMDA 2A; assay: Positive allosteric modulation of GluN2A receptor (unknown origin) expressed in HEK cell assessed as increase in glycine-induced calcium influx

T2 sequence (Q12879 whole entry, one chain of several): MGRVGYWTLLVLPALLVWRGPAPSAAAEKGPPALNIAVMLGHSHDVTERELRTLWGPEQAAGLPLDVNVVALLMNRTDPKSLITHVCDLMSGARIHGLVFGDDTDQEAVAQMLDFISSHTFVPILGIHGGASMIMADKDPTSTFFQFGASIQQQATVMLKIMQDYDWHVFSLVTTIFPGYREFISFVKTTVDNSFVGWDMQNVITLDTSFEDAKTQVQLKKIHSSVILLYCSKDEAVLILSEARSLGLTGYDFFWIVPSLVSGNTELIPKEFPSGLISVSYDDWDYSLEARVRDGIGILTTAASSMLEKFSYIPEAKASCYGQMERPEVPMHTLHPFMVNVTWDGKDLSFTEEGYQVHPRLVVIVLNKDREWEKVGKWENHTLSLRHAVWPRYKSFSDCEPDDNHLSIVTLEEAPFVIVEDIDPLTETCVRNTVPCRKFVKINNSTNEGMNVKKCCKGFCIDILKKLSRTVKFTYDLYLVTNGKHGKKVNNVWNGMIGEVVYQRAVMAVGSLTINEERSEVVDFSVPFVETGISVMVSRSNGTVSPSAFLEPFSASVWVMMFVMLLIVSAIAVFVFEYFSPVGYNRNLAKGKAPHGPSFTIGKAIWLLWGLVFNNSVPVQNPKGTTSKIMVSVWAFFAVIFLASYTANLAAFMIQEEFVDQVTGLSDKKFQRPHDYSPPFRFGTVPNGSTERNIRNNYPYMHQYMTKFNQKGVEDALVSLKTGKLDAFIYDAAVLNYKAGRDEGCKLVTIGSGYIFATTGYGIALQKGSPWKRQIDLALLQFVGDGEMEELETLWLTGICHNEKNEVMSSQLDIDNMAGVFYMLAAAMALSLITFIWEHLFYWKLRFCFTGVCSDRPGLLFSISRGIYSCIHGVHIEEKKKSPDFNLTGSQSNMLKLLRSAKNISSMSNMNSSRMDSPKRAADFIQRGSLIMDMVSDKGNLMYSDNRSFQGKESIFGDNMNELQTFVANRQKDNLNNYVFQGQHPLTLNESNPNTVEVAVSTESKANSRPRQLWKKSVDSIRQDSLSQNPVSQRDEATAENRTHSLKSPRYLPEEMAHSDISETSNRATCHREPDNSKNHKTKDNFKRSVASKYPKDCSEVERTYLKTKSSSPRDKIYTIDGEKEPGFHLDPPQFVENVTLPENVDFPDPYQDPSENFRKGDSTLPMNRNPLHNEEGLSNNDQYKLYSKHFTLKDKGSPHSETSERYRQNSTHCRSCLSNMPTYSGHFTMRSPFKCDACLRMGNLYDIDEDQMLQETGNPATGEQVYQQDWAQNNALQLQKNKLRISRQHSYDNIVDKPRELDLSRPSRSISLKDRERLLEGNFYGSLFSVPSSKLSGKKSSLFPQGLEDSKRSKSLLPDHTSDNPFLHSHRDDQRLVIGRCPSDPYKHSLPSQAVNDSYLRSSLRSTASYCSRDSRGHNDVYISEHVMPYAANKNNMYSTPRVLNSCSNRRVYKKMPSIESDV
T3 sequence (Q14957 whole entry, one chain of several): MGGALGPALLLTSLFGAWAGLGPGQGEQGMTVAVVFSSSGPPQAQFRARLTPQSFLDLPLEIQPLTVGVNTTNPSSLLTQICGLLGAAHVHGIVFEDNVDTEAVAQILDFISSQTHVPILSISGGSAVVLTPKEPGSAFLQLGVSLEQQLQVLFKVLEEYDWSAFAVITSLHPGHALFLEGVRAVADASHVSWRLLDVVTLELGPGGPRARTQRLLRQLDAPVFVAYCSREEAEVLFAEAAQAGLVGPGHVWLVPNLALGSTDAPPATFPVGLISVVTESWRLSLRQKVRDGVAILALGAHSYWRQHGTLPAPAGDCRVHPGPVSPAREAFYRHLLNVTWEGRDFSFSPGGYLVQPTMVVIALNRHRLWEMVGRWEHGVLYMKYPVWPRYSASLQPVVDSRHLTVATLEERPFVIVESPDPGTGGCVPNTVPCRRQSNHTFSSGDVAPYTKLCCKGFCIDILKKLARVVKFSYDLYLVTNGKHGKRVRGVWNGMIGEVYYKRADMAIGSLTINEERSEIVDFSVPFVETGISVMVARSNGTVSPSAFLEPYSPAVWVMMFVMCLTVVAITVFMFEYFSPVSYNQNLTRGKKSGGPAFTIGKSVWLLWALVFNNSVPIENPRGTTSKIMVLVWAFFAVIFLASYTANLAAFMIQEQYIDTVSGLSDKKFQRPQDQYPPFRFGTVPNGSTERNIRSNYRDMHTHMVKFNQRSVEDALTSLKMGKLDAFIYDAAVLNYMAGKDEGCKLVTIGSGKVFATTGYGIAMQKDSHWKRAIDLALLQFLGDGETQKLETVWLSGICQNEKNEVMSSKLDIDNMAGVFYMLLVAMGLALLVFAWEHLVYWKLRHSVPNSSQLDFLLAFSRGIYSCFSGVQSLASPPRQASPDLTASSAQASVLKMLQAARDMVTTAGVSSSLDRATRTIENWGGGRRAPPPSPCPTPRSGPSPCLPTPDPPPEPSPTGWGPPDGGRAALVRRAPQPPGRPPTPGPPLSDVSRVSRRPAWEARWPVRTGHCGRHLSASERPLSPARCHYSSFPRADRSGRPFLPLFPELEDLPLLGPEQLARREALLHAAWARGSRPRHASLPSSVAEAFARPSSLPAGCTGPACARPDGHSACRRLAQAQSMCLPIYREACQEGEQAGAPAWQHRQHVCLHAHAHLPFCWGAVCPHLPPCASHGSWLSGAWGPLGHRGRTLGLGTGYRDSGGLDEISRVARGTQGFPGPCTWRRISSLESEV
T1 sequence (Q13224 whole entry, one chain of several): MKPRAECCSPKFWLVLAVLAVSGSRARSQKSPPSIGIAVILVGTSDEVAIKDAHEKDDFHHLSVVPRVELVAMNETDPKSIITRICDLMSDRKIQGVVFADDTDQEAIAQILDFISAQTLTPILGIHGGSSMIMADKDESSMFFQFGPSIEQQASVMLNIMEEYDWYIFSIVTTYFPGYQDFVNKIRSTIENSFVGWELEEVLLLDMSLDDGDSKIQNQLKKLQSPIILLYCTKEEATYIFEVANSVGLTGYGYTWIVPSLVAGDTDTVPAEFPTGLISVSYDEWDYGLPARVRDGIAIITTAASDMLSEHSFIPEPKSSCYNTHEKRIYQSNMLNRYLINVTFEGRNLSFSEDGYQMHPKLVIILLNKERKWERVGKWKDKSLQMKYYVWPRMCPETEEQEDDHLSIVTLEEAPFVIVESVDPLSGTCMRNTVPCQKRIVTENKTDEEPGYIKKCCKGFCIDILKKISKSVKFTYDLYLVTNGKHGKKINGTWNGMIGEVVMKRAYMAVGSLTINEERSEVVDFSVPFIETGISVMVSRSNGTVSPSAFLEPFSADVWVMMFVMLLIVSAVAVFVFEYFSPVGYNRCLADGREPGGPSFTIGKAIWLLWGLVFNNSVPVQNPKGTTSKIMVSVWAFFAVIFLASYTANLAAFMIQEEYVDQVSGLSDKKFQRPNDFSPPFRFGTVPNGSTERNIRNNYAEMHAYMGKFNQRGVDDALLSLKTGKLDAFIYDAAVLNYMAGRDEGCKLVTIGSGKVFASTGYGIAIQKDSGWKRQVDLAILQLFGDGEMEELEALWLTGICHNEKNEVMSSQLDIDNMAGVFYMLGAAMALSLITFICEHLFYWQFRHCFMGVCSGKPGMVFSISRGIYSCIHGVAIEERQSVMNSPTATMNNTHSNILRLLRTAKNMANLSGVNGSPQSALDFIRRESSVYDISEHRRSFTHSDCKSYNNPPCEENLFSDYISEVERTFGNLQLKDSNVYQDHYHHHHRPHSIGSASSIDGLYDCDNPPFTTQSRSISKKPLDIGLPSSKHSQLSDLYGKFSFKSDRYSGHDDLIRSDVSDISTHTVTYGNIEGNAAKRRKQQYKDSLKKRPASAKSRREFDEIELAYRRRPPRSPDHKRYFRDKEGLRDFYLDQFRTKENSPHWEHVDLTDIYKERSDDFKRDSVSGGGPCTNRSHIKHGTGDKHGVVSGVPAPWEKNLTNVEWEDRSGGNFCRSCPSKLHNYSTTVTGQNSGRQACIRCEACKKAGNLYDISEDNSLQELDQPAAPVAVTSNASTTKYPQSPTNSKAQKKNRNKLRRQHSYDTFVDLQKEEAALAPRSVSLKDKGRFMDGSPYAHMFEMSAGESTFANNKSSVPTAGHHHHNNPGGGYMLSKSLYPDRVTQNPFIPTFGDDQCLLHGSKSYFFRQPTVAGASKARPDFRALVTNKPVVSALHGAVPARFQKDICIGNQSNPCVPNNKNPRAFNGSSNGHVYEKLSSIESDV
Sequence of Ionotropic glutamate receptor NMDA 1/2C (Q14957 whole entry, other chains not shown): as the sequence (Q14957 whole entry, one chain of several) above

**Q.** How did the IC50 [1] turn out when Cc1nccn1Cc1cc(-c2ccc(F)c(C(F)F)c2)cnn1 [EVT-101 FREE BASE] was run?
**A.** 0.012 µM

**Q.** For COc1ccc2nc(/C=C/c3cccc([N+](=O)[O-])c3)n(-c3ccc(C(=O)O)cc3)c(=O)c2c1, which IC50 [2] is on record?
**A.** 182 µM

**Q.** And the IC50 [1]?
**A.** 193 µM

**Q.** What about the IC50 [3] of the same compound?
**A.** 7.1 µM

**Q.** And the IC50 [4]?
**A.** 3.9 µM

**Q.** Which results are given for O=C(O)c1cc2cc(-c3ccccc3)ccc2c(Br)c1O?
**A.** IC50 [2]: 1.8 µM; IC50 [1]: 2.4 µM; IC50 [3]: 2 µM; IC50 [4]: 2.4 µM

**Q.** Which IC50 [2] does the source give for O=C(O)c1cc2cc(Br)ccc2oc1=O here?
**A.** 18.6 µM

**Q.** What about the IC50 [5] of the same compound?
**A.** 19 µM

**Q.** What about the IC50 [6] of the same compound?
**A.** 90 µM

**Q.** And the IC50 [7]?
**A.** 68 µM

**Q.** And the IC50 [8]?
**A.** 426 µM

**Q.** Which IC50 [2] does the source give for C[C@@H](CN1CCC(Cc2ccccc2)CC1)[C@@H](O)c1ccc(O)cc1 here?
**A.** 52 µM

**Q.** What about the IC50 [1] of the same compound?
**A.** 0.009 µM

**Q.** Which EC50 [9] does the source give for Cc1sc2nc(COc3ccc(F)cc3)cc(=O)n2c1[C@@H]1C[C@@H]1CO here?
**A.** 8.5 µM

**Q.** Which results are given for CC(=O)[C@H]1CC[C@H]2[C@@H]3CC=C4C[C@@H](OS(=O)(=O)O)CC[C@]4(C)[C@H]3CC[C@]12C?
**A.** IC50 [3]: 112 µM; IC50 [4]: 118 µM; EC50 [9]: 21 µM; EC50 [10]: 33 µM; EC50 [11]: 34 µM; EC50 [12]: 63 µM; EC50 [13]: 83 µM; EC50 [14]: 78 µM

**Q.** What does the source list for CCN(CC)C(=S)Oc1ccc(C(=O)Nc2cccc3ccccc23)cc1?
**A.** IC50 [3]: 2.6 µM; IC50 [4]: 1.4 µM; Ratio IC50 [15]: > 400; Ratio IC50 [16]: > 400; Ratio IC50 [17]: > 400; Ratio IC50 [18]: > 400

**Q.** Which IC50 [19] does the source give for O=C(NNC(=O)c1ccc(CNS(=O)(=O)c2ccc(F)c(Cl)c2)cc1)c1ccccc1 here?
**A.** > 30 µM

**Q.** What about the IC50 [20] of the same compound?
**A.** > 10 µM

**Q.** And the IC50 [21]?
**A.** > 10 µM

**Q.** For O=C(O)c1cc2cccc(O)c2cc1O, which IC50 [2] is on record?
**A.** 9.7 µM

**Q.** And the IC50 [1]?
**A.** 9.4 µM

**Q.** And the IC50 [3]?
**A.** 15 µM

**Q.** And the EC50 [22]?
**A.** 10 µM

**Q.** Which results are given for CC(C(O)c1ccc(O)cc1)N1CCC(Cc2ccccc2)CC1 (stereo unspecified) [IFENPRODIL]?
**A.** IC50 [23]: 39.5 µM; IC50 [20]: 29.1 µM; IC50 [21]: 75.9 µM

**Q.** For CCCc1nc2[nH]c(C)c(NS(=O)(=O)c3ccc(C4CCCCC4)cc3)c(=O)n2n1, which EC50 [22] is on record?
**A.** 6.7 µM

**Q.** What about the EC50 [9] of the same compound?
**A.** 3.2 µM

**Q.** What about the EC50 [10] of the same compound?
**A.** 15.7 µM

**Q.** And the EC50 [24]?
**A.** 6.6 µM

**Q.** CC(=O)[C@H]1CC[C@H]2[C@@H]3CC[C@@H]4C[C@H](OS(=O)(=O)O)CC[C@]4(C)[C@H]3CC[C@]12C was tested. Which IC50 [2] did it give?
**A.** 62 µM

**Q.** And the IC50 [1]?
**A.** 38 µM

**Q.** And the IC50 [3]?
**A.** 12 µM

**Q.** What about the IC50 [4] of the same compound?
**A.** 14 µM

**Q.** What does the source list for O=C(O)CCC(=O)N1N=C(c2c(-c3ccccc3)c3cc(Br)ccc3[nH]c2=O)CC1c1ccc(Br)cc1 (stereo unspecified)?
**A.** IC50 [2]: 78 µM; IC50 [1]: 19 µM; IC50 [3]: 5.4 µM; IC50 [4]: 2.7 µM

**Q.** NCCCNCCCCNCCCN [SPERMINE] was tested. Which EC50 [10] did it give?
**A.** 127 µM

**Q.** What about the EC50 [25] of the same compound?
**A.** 81 µM

**Q.** And the EC50 [26]?
**A.** 125 µM

**Q.** CC(C)CCCc1ccc2cc(C(=O)O)ccc2c1 was tested. Which EC50 [22] did it give?
**A.** 29 µM

**Q.** And the EC50 [9]?
**A.** 28 µM

**Q.** What about the EC50 [10] of the same compound?
**A.** 34 µM

**Q.** And the EC50 [24]?
**A.** 37 µM

**Q.** How did the IC50 [1] turn out when Cc1ccc2[nH]c(=O)c(C3=NN(C(=O)CCC(=O)O)C(c4ccc(Br)cc4)C3)c(-c3ccccc3)c2c1 (stereo unspecified) was run?
**A.** 113 µM

**Q.** What about the IC50 [3] of the same compound?
**A.** 7 µM

**Q.** How did the EC50 [22] turn out when COc1ccc(OCC2c3cc(OC)c(OC)cc3CCN2C(=O)c2cccc(Cl)c2)cc1 (stereo unspecified) was run?
**A.** 2.8 µM

**Q.** What about the EC50 [9] of the same compound?
**A.** > 10 µM

**Q.** What about the EC50 [10] of the same compound?
**A.** > 10 µM

**Q.** And the EC50 [24]?
**A.** 2.7 µM

**Q.** How did the EC50 [24] turn out when COC(=O)c1ccc(C2C(C(C)=O)=C(O)C(=O)N2CCc2c(C)[nH]c3ccccc23)cc1 (stereo unspecified) was run?
**A.** 13 µM

**Q.** With CCN(Cc1cc(=O)n2c3c(sc2n1)CCC3)c1ccc(F)cc1 as the compound, how does the EC50 [27] read?
**A.** 2.43 µM

**Q.** With O=C(O)c1ccc2cc(I)c3ccccc3c2c1 as the compound, how does the IC50 [3] read?
**A.** 50 µM

**Q.** And the IC50 [4]?
**A.** 50 µM

**Q.** What about the EC50 [9] of the same compound?
**A.** 100 µM
